Columns and labels:
[1] = biological target: Receptor-type tyrosine-protein phosphatase beta (Homo sapiens, UniProt P23467); experiment: Inhibition of His-tagged PTPbeta (unknown origin) expressed in Escherichia coli BL21 cells using para-nitrophenyl phosphate as substrate incubated for 5 to 10 mins by microplate reader based spectrophotometric analysis
[2] = biological target: Receptor-type tyrosine-protein phosphatase S (Homo sapiens, UniProt Q13332); experiment: Inhibition of His-tagged PTPsigma (unknown origin) expressed in Escherichia coli BL21 cells using para-nitrophenyl phosphate as substrate incubated for 5 to 10 mins by microplate reader based spectrophotometric analysis
[3] = biological target: T1, Tyrosine-protein phosphatase non-receptor type 11 (Homo sapiens, UniProt Q06124); experiment: Inhibition of His-tagged SHP2 (unknown origin) expressed in Escherichia coli BL21 cells using para-nitrophenyl phosphate as substrate incubated for 5 to 10 mins by microplate reader based spectrophotometric analysis
T1 sequence (Q06124 whole entry): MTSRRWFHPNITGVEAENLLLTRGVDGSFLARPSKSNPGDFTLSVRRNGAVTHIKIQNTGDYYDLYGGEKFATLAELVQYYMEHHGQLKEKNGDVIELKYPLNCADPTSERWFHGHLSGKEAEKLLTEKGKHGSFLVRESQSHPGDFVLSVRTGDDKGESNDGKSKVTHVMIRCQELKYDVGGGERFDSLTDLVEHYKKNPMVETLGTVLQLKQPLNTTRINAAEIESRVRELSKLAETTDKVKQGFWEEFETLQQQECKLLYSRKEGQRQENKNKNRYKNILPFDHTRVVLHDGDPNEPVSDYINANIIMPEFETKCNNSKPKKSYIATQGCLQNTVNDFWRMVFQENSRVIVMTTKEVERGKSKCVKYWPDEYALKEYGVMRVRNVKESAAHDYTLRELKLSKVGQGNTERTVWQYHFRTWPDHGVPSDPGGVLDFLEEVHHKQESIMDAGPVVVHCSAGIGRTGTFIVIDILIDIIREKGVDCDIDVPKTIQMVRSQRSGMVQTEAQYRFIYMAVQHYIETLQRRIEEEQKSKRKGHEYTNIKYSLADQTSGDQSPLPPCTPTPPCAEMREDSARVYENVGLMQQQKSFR

[4] = biological target: Receptor-type tyrosine-protein phosphatase epsilon (Homo sapiens, UniProt P23469); experiment: Inhibition of His-tagged PTPepsilon (unknown origin) expressed in Escherichia coli BL21 cells using para-nitrophenyl phosphate as substrate incubated for 5 to 10 mins by microplate reader based spectrophotometric analysis
[5] = biological target: T2, Receptor-type tyrosine-protein phosphatase C (Homo sapiens, UniProt P08575); experiment: Inhibition of His-tagged CD45 (unknown origin) expressed in Escherichia coli BL21 cells using para-nitrophenyl phosphate as substrate incubated for 5 to 10 mins by microplate reader based spectrophotometric analysis
T2 sequence (P08575 whole entry): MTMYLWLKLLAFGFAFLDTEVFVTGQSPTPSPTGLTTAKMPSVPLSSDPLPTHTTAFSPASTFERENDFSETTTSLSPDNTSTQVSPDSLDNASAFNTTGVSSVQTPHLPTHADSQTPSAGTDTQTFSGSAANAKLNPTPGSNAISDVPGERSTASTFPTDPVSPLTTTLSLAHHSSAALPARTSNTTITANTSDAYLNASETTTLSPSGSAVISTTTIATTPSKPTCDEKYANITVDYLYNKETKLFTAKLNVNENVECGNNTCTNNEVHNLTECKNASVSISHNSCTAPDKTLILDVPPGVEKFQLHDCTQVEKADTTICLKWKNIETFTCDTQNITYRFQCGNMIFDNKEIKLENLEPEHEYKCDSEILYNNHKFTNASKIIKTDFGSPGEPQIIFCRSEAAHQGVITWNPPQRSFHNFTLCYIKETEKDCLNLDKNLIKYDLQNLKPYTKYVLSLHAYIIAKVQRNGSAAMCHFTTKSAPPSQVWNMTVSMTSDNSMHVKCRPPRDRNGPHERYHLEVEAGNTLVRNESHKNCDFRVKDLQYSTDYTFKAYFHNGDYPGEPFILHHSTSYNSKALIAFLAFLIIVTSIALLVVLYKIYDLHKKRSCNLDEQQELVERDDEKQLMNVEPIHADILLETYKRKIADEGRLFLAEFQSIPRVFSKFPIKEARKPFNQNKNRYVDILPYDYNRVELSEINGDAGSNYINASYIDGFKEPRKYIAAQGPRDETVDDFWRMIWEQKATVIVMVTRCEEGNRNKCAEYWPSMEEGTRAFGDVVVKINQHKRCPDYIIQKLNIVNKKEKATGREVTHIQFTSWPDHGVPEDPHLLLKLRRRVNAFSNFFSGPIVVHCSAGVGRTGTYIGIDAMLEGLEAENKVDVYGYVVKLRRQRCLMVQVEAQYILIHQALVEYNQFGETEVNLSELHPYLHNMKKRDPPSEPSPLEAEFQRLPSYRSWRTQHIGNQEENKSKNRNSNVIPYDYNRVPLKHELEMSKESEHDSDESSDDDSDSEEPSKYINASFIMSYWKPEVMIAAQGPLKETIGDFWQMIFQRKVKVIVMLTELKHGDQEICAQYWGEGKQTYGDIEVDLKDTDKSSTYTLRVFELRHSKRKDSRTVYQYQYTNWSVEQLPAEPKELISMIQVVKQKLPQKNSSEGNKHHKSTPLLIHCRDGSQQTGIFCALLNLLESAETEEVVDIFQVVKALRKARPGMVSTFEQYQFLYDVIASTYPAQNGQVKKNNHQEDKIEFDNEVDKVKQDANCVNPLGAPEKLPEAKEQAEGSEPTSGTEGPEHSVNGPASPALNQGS

[6] = biological target: T3, Dual specificity protein phosphatase 6 (Homo sapiens, UniProt Q16828); experiment: Inhibition of His-tagged MKP3 (unknown origin) expressed in Escherichia coli BL21 cells using para-nitrophenyl phosphate as substrate incubated for 5 to 10 mins by microplate reader based spectrophotometric analysis
T3 sequence (Q16828 whole entry): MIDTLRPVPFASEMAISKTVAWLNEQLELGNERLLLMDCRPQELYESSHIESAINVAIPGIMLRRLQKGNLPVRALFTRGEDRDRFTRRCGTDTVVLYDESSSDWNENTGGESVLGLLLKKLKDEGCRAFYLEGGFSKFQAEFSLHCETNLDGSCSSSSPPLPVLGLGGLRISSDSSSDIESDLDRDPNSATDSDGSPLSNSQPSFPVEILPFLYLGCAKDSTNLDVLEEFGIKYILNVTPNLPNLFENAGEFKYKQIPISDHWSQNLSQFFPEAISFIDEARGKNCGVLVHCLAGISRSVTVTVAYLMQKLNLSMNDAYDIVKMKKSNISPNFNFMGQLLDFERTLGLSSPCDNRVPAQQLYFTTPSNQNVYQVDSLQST

Receptor-type tyrosine-protein phosphatase epsilon, sequence (P23469 whole entry): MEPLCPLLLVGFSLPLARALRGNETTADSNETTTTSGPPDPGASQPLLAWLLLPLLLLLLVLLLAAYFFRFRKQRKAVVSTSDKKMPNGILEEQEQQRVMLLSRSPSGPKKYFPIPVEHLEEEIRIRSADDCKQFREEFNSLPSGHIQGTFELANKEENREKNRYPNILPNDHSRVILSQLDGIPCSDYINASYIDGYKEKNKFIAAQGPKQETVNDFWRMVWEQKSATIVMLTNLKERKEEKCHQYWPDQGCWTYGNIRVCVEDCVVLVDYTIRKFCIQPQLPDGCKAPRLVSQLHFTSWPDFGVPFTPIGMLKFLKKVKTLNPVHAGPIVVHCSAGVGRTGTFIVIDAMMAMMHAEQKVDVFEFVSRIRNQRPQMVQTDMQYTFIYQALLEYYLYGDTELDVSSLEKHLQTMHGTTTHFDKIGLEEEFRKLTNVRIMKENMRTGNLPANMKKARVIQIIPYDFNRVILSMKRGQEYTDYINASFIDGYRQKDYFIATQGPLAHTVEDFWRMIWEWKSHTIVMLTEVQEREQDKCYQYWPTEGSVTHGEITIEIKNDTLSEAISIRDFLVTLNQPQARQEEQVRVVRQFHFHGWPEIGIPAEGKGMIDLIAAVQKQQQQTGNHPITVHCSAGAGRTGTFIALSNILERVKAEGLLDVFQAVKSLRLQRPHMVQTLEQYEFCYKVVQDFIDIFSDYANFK
Receptor-type tyrosine-protein phosphatase beta, sequence (P23467 whole entry): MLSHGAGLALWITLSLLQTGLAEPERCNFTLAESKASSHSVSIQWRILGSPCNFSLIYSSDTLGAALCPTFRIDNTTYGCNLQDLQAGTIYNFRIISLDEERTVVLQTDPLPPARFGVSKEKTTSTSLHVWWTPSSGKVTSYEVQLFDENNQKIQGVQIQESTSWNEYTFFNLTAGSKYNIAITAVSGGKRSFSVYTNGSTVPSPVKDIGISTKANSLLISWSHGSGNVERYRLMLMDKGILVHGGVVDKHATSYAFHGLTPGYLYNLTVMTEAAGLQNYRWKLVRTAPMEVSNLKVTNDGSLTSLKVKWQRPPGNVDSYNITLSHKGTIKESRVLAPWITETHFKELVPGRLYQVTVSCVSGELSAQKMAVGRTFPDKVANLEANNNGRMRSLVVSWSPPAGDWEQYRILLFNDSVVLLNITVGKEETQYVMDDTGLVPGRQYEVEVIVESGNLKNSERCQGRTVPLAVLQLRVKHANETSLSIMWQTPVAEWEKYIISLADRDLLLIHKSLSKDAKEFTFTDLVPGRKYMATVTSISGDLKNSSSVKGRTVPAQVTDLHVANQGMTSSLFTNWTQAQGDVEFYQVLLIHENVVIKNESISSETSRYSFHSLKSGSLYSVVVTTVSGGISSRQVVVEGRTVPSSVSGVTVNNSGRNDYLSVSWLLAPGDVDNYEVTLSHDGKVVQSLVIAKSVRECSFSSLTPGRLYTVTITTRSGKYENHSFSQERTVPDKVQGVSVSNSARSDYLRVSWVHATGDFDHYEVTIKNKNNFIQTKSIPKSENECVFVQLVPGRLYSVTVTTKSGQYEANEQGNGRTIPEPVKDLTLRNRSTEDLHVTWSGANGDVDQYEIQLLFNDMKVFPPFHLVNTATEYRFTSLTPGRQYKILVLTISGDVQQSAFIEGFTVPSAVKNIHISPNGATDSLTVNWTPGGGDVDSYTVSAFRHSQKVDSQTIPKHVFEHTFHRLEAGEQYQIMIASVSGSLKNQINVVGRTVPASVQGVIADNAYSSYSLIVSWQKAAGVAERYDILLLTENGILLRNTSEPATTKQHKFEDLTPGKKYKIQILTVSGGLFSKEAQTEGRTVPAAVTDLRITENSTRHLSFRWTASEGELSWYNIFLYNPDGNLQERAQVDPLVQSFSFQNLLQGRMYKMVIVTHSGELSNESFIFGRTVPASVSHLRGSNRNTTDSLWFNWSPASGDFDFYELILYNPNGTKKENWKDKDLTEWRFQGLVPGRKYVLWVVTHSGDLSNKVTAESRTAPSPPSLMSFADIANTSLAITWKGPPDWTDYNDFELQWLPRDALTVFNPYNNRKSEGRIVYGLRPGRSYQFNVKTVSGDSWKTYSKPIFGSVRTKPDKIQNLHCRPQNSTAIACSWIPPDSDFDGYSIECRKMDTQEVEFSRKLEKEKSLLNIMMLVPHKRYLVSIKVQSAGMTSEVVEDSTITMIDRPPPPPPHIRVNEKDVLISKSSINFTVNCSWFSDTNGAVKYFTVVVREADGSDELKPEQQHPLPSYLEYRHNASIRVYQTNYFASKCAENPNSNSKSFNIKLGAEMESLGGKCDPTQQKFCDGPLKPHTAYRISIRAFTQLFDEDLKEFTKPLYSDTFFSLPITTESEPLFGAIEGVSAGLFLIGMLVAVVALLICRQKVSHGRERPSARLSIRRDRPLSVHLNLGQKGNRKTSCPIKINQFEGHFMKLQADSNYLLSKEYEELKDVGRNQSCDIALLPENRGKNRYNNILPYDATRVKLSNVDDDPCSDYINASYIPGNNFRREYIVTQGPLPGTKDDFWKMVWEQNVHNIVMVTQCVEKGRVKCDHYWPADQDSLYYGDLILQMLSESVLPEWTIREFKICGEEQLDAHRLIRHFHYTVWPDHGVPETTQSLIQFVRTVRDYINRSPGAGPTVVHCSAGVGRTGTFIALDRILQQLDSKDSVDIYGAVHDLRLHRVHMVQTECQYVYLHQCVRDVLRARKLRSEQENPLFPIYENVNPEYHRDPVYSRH
Receptor-type tyrosine-protein phosphatase S, sequence (Q13332 whole entry): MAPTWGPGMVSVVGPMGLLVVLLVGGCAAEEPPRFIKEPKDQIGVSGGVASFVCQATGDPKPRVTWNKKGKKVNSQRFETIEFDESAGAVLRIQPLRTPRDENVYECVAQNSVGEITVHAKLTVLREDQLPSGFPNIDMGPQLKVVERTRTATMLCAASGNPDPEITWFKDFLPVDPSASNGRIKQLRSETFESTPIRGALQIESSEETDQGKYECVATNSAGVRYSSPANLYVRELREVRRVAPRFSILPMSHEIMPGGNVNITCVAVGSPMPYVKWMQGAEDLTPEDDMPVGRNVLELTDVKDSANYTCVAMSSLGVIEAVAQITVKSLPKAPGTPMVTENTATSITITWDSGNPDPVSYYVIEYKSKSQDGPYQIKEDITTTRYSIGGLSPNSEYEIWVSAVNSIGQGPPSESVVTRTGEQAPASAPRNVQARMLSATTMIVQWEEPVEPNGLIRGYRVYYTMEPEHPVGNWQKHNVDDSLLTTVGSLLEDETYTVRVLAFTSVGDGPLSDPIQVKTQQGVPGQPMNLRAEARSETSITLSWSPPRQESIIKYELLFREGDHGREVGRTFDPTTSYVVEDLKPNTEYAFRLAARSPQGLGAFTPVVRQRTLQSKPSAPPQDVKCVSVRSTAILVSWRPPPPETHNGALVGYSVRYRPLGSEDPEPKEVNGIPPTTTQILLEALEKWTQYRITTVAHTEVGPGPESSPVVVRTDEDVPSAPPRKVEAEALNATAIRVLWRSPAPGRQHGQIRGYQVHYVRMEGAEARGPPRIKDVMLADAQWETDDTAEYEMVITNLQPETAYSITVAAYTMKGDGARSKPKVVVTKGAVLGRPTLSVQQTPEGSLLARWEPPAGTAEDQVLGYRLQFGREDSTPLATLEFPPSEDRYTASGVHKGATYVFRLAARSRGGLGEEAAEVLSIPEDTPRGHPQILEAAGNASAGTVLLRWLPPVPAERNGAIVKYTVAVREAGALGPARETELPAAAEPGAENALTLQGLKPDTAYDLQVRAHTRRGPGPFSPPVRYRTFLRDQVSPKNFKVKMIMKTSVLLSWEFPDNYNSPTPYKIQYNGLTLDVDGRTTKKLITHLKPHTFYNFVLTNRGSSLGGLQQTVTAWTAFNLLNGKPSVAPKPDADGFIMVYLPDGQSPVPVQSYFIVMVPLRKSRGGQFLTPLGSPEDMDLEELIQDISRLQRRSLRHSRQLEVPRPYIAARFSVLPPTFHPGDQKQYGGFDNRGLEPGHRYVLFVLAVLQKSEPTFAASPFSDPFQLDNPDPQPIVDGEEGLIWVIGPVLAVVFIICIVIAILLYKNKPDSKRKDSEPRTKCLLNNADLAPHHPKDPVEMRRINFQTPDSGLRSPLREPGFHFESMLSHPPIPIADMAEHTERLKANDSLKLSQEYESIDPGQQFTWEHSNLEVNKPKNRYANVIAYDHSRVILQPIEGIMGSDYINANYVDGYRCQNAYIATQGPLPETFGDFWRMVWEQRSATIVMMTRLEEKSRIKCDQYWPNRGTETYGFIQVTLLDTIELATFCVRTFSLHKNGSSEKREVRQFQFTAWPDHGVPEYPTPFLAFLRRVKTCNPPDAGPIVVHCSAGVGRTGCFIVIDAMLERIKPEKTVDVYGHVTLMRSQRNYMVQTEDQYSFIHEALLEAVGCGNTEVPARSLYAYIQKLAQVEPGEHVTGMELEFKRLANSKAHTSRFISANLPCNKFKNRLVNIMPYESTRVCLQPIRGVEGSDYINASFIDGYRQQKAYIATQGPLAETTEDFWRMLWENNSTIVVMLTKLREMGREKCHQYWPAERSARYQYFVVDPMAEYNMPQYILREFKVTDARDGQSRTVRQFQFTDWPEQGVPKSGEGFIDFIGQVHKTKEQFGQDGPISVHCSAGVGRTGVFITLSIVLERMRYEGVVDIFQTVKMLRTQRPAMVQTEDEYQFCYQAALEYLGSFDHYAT

SMILES	IC50 [1] [µM]	IC50 [2] [µM]	IC50 [3] [µM]	IC50 [4] [µM]	IC50 [5] [µM]	IC50 [6] [µM]
O=C(Nc1ccc(-n2ccnc2)cc1)C(c1ccccc1)S(=O)(=O)O (centres undefined)	> 100	> 100	> 100	> 100	> 100	> 100
Cc1c(Br)cc(NC(=O)C(c2ccccc2)S(=O)(=O)O)cc1Br (centres undefined)	> 200	> 200	> 200	> 200	> 200	> 200
O=C(Nc1ccc(OCc2ccccc2)c(Cl)c1)C(c1ccccc1)S(=O)(=O)O (centres undefined)	> 200	> 200		> 200	> 200	> 200
O=C(Nc1cc(C(F)(F)F)cc(C(F)(F)F)c1)C(c1ccccc1)S(=O)(=O)O (centres undefined)	> 200	> 200	> 200	> 200	> 200	> 200
O=C(Nc1nc2ccc([N+](=O)[O-])cc2s1)C(c1ccccc1)S(=O)(=O)O (centres undefined)	> 100	> 100	> 100	> 100	> 100	> 100
